Results on 7 molecules are retold here after PubChem BioAssay AID1919002 (Molecular Pharmacology Branch, DTP, NCI, 2023).

What is called IC50 is the concentration that gives 50% inhibition. Broadly, the viability, T/C is the ratio of treated to control.

Molecules are shown by their SMILES. Values joined by “and” are separate entries in the source; they are usually repeats but may differ in a detail not shown here. Identical values can stand only once.

The test system of this test is 743489-274-T-PDC complex spheroid growth. Briefly: Anticancer human tumor 743489-274-T-PDC patient-derived renal cell carcinoma cell line growth inhibition [AhR]. The settings on record: for viability, T/C: stronger effect = lower value. The method, boiled down:
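Agents were dosed in half-log steps down from roughly clinical Cmax, or from 10 microM where Cmax was unknown, alone and with AhR antagonists. Read-out: percent test/control growth of tumor spheroids containing HUVEC and MSC stromal cells.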

Setting [1] is: curve of first compound, second compound 0.1 µM.
The mark [2] stands for this setting: curve of first compound, second compound 0.316 µM.
Setting [3] is: curve of first compound, second compound 1 µM.
[4] abbreviates: curve of first compound, second compound 3.16 µM.
Where [5] appears, read: curve of first compound, second compound 10 µM.
The mark [6] stands for this setting: second compound 0.1 µM, first compound 0.00949 µM.
Where [7] appears, read: second compound 0.1 µM, first compound 0.03 µM.
[8] abbreviates: second compound 0.1 µM, first compound 0.0949 µM.
The mark [9] stands for this setting: second compound 0.1 µM, first compound 0.3 µM.
Where [10] appears, read: second compound 0.316 µM, first compound 0.00949 µM.
[11] abbreviates: second compound 0.316 µM, first compound 0.03 µM.
Where [12] appears, read: second compound 0.316 µM, first compound 0.0949 µM.
The mark [13] stands for this setting: second compound 0.316 µM, first compound 0.3 µM.
[14] abbreviates: second compound 1 µM, first compound 0.00949 µM.
[15] abbreviates: second compound 1 µM, first compound 0.03 µM.
Setting [16] is: second compound 1 µM, first compound 0.0949 µM.
Setting [17] is: second compound 1 µM, first compound 0.3 µM.
[18] abbreviates: second compound 3.16 µM, first compound 0.00949 µM.
[19] abbreviates: second compound 3.16 µM, first compound 0.03 µM.
Setting [20] is: second compound 3.16 µM, first compound 0.0949 µM.
The mark [21] stands for this setting: second compound 3.16 µM, first compound 0.3 µM.
[22] abbreviates: second compound 10 µM, first compound 0.00949 µM.
Where [23] appears, read: second compound 10 µM, first compound 0.03 µM.
[24] abbreviates: second compound 10 µM, first compound 0.0949 µM.
The mark [25] stands for this setting: second compound 10 µM, first compound 0.3 µM.
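Note: spheroids exposed to agents for 7 days before readout.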
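Throughout, for viability, T/C: 100% = DMSO vehicle control wells.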

Turning to `CC(C)CC(NC(=O)C(Cc1ccccc1)NC(=O)c1cnccn1)B(O)O` (stereo not given) + Cc1ccccc1N=Nc1ccc(NC(=O)c2ccnn2C)c(C)c1, the IC50 runs as follows: under setting [1], 0.0218 µM; under setting [2], 0.0248 µM; under setting [3], 0.0282 µM; under setting [4], 0.0222 µM; under setting [5], 0.0212 µM. Also, the viability, T/C was 99.1% (second compound 0.1 µM, first compound 0.000949 µM); 115% (second compound 0.1 µM, first compound 0.003 µM); 97.4% under setting [6]; 31.5% under setting [7]; 13.8% under setting [8]; 4.06% under setting [9]. Further, the viability, T/C is, setting by setting: (second compound 0.316 µM, first compound 0.000949 µM) 83.8%; (second compound 0.316 µM, first compound 0.003 µM) 98.5%; under setting [10], 100%; under setting [11], 41.1%; under setting [12], 16.2%; under setting [13], 2.22%. For the same molecule, the viability, T/C reads like this: (second compound 1 µM, first compound 0.000949 µM) 88.9%; (second compound 1 µM, first compound 0.003 µM) 111%; under setting [14], 113%; under setting [15], 46.9%; under setting [16], 15.2%; under setting [17], 5%. Further, the viability, T/C reads like this: (second compound 3.16 µM, first compound 0.000949 µM) 89.1%; (second compound 3.16 µM, first compound 0.003 µM) 94.8%; under setting [18], 94.2%; under setting [19], 34.9%; under setting [20], 17.3%; under setting [21], 2.43%. Besides, the viability, T/C is 77.4% (second compound 10 µM, first compound 0.000949 µM); 97.6% (second compound 10 µM, first compound 0.003 µM); 89.4% under setting [22]; 33.6% under setting [23]; 10.4% under setting [24]; 4.58% under setting [25].

`O=C(C=Cn1cnc(-c2cc(C(F)(F)F)cc(C(F)(F)F)c2)n1)NNc1cnccn1` + CC(CO)NC(=O)c1cc(-c2ccc(Cl)cc2)nn(-c2cnn(C)c2)c1=O: the 50% inhibitory concentration (IC50) is > 3 µM under setting [1]; > 3 µM under setting [2]; > 3 µM under setting [3]; > 3 µM under setting [4]; > 3 µM under setting [5]. The viability, T/C under setting [6] was 108%; the viability, T/C under setting [7] is 102%; the viability, T/C under setting [8] is 111%; the viability, T/C under setting [9] is 122%; the viability, T/C (second compound 0.1 µM, first compound 0.949 µM) is 114%; the viability, T/C (second compound 0.1 µM, first compound 3 µM) was 98.3%. For the same molecule, the viability, T/C is 86.7% under setting [10]; 103% under setting [11]; 117% under setting [12]; 115% under setting [13]; 101% (second compound 0.316 µM, first compound 0.949 µM); 90.3% (second compound 0.316 µM, first compound 3 µM). In addition, the viability, T/C is 94% under setting [14]; 109% under setting [15]; 101% under setting [16]; 123% under setting [17]; 116% (second compound 1 µM, first compound 0.949 µM); 94.1% (second compound 1 µM, first compound 3 µM). The viability, T/C by setting is: under setting [18], 96.7%; under setting [19], 101%; under setting [20], 112%; under setting [21], 129%; (second compound 3.16 µM, first compound 0.949 µM) 105%; (second compound 3.16 µM, first compound 3 µM) 86.1%. The viability, T/C under setting [22] is 96.3%; the viability, T/C under setting [23] was 110%; the viability, T/C under setting [24] is 104%; the viability, T/C under setting [25] is 116%; the viability, T/C (second compound 10 µM, first compound 0.949 µM) was 94.9%; the viability, T/C (second compound 10 µM, first compound 3 µM) is 91.3%.

Regarding `Cc1ccccc1N=Nc1ccc(NC(=O)c2ccnn2C)c(C)c1`, the viability, T/C runs as follows: (compound 0.1 µM) 90.5% [middle of 20 runs]; (compound 0.316 µM) 90.9% [middle of 20 runs]; (compound 1 µM) 86.1% [middle of 20 runs]. In addition, where the note is “compound alone, run of 08/22/2022”, the IC50 is > 10 µM.

In the case of `Nc1ccccc1NC(=O)c1ccc(CNC(=O)OCc2cccnc2)cc1` + Cc1cncc(-c2nc(NCCc3c[nH]c4ccccc34)c3ncn(C(C)C)c3n2)c1, the IC50 under setting [1] turned out to be 4.64 µM; the 50% inhibitory concentration (IC50) under setting [2] came out at 3.12 µM; the IC50 under setting [3] turned out to be 2.4 µM; the IC50 under setting [4] turned out to be 6.83 µM; the IC50 under setting [5] was 9.62 µM. For the same molecule, the viability, T/C runs as follows: (second compound 0.1 µM, first compound 0.0316 µM) 104%; (second compound 0.1 µM, first compound 0.1 µM) 92.7%; (second compound 0.1 µM, first compound 0.316 µM) 86.5%; (second compound 0.1 µM, first compound 1 µM) 77.7%; (second compound 0.1 µM, first compound 3.16 µM) 54.2%; (second compound 0.1 µM, first compound 10 µM) 36.6%. The viability, T/C was 92.2% (second compound 0.316 µM, first compound 0.0316 µM); 93.1% (second compound 0.316 µM, first compound 0.1 µM); 89.4% (second compound 0.316 µM, first compound 0.316 µM); 74% (second compound 0.316 µM, first compound 1 µM); 50.1% (second compound 0.316 µM, first compound 3.16 µM); 36.3% (second compound 0.316 µM, first compound 10 µM). Besides, the viability, T/C is 88.5% (second compound 1 µM, first compound 0.0316 µM); 84.1% (second compound 1 µM, first compound 0.1 µM); 87.2% (second compound 1 µM, first compound 0.316 µM); 73.8% (second compound 1 µM, first compound 1 µM); 42.5% (second compound 1 µM, first compound 3.16 µM); 29.9% (second compound 1 µM, first compound 10 µM). Moreover, the viability, T/C reads like this: (second compound 3.16 µM, first compound 0.0316 µM) 95.5%; (second compound 3.16 µM, first compound 0.1 µM) 91.5%; (second compound 3.16 µM, first compound 0.316 µM) 88.7%; (second compound 3.16 µM, first compound 1 µM) 78.5%; (second compound 3.16 µM, first compound 3.16 µM) 61.3%; (second compound 3.16 µM, first compound 10 µM) 44.3%. For the same molecule, the viability, T/C was 102% (second compound 10 µM, first compound 0.0316 µM); 102% (second compound 10 µM, first compound 0.1 µM); 106% (second compound 10 µM, first compound 0.316 µM); 91.3% (second compound 10 µM, first compound 1 µM); 84.6% (second compound 10 µM, first compound 3.16 µM); 48.2% (second compound 10 µM, first compound 10 µM).

Regarding `CC1(C)CCC(CN2CCN(c3ccc(C(=O)NS(=O)(=O)c4ccc(NCC5CCOCC5)c([N+](=O)[O-])c4)c(Oc4cnc5[nH]ccc5c4)c3)CC2)=C(c2ccc(Cl)cc2)C1`, the viability, T/C reads like this: (compound 0.0316 µM) 109% and 96.8% and 101%; (compound 0.1 µM) 112% and 106% and 103%; (compound 0.316 µM) 112% (2×) and 103%; (compound 1 µM) 109% and 106% (2×); (compound 3.16 µM) 120% and 117% and 108%; (compound 10 µM) 117% and 96.9% and 109%. Besides, the IC50 (curve of compound) is > 10 µM.

Take `CC1COCCN1c1cc(-c2ccnn2C)c2ccnc(-c3ccn[nH]3)c2n1` (stereo not given): the viability, T/C reads like this: (compound 0.00316 µM) 112% and 105% and 104%; (compound 0.01 µM) 106% and 114% and 100%; (compound 0.0316 µM) 101% (2×) and 104%; (compound 0.1 µM) 106% and 102% and 103%; (compound 0.316 µM) 101% and 86.3% and 100%; (compound 1 µM) 85.1% and 68% and 73.8%. The IC50 (curve of compound) is > 1 µM.

For the molecule `COc1cc(Nc2ncc3c(n2)-c2ccc(Cl)cc2C(c2c(F)cccc2OC)=NC3)ccc1C(=O)O`, the viability, T/C (compound 0.0316 µM) was 106% and 98.6% and 103%; the viability, T/C (compound 0.1 µM) is 105% and 95.3% and 116%; the viability, T/C (compound 0.316 µM) is 92% and 95.6% and 98.8%; the viability, T/C (compound 1 µM) was 91.3% and 90.4% and 99.3%; the viability, T/C (compound 3.16 µM) is 90.3% and 92.1% and 91.2%; the viability, T/C (compound 10 µM) is 102% and 87.5% and 94.5%. Moreover, the IC50 (curve of compound) was > 10 µM.
